# Data reported in patent US8859580B2 (Boehringer Ingelheim International GmbH, priority 2007, dated 2014).
# Target: T1, 11β-HSD1 (Homo sapiens, UniProt P28845)
# T1 construct: detecting cortisol generated from cortisterone by human liver microsomes; from tissue; host or cells: human liver microsomes
# Experiment: In vitro inhibition of 11β-HSD1, HTRF detection of cortisol generated from cortisone by human liver microsomes
# Type: biochemical
# Details: 11β-HSD IC50 (nM), 1 hour at 37° C., pH 6.0, NADPH 200 μM, cortisone 80 nM, inhibition relative to carbenoxolone signal
# Procedure: Cortisol generated in the reaction is then detected with a competitive immunoassay, involving two HTRF conjugates: cortisol linked to XL665 and anti-cortisol antibody labeled with Europium cryptate. The incubation period for detection reaction was typically 2 hours. […] The ratio of the two emission signals is then calculated (Em665*10000/Em615). […] Each assay also contained a calibration curve with cortisol to transform the fluorescent data into cortisol concentrations. Percent inhibition of each compound was determined relative to the carbenoxolone signal and IC50 curves were generated.
# T1 sequence (P28845 whole entry): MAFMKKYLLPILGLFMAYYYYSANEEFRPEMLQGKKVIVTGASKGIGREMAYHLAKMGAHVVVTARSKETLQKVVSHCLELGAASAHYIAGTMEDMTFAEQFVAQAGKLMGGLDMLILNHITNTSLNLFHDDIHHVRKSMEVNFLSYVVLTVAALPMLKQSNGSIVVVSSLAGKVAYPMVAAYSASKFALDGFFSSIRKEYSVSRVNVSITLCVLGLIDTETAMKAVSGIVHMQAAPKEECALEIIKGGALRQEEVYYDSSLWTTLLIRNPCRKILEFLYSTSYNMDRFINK
row,SMILES,IC50
1,"CC1(C)[C@H]2Cc3ccc(S(N)(=O)=O)cc3[C@]1(C)CCN2C(=O)c1ccc2nc[nH]c2c1 [Example 203, (2R,6S)-3-(3H-Benzoimidazole-5-carbonyl)-6,11,11-trimethyl-1,2,3,4,5,6-hexahydro-2,6-methano-benzo[d]azocine-8-sulfonic acid amide]",125 nM
2,"C[C@H]1[C@H]2Cc3ccc(O)cc3[C@]1(C)CCN2C(=O)c1ccc2nc[nH]c2c1 [Example 247, (3H-Benzoimidazol-5-yl)-[(2R,6R,11R)-8-hydroxy-6,11-dimethyl-1,2,5,6-tetrahydro-4H-2,6-methano-benzo[d]azocin-3-yl)-methanone]",190 nM
3,"C[C@@H]1[C@H]2Cc3ccc(C(N)=O)cc3[C@]1(C)CCN2C(=O)c1ccc2nc[nH]c2c1 [Example 157, (2R,6R,11S)-3-(3H-Benzoimidazole-5-carbonyl)-6,11-dimethyl-1,2,3,4,5,6-hexahydro-2,6-methano-benzo[d]azocine-8-carboxylic acid amide]",335 nM
4,"O=C(c1ccc2nc[nH]c2c1)N1CCC2(C(=O)O)CC1Cc1ccc(O)cc12 (centres unmarked) [Example 213, 3-(3H-Benzoimidazole-5-carbonyl)-8-hydroxy-2,3,4,5-tetrahydro-1H-2,6-methano-benzo[d]azocine-6-carboxylic acid]",2970 nM
5,"COC[C@H]1CCCN1C(=O)c1cccc(C(=O)N2CC[C@@]3(C)c4cccc(O)c4C[C@@H]2C3(C)C)c1 [Example 40, [(2R,6S)-10-Hydroxy-6,11,11-trimethyl-1,2,5,6-tetrahydro-4H-2,6-methano-benzo[d]azocin-3-yl]-[3-((R)-2-methoxymethyl-pyrrolidine-1-carbonyl)-phenyl]-methanone]",542 nM
6,"C[C@H]1[C@H]2Cc3ccccc3[C@]1(C)CCN2C(=O)c1ccc2nc[nH]c2c1 (racemic) [Example 77, (3H-Benzoimidazol-5-yl)-(6,11-dimethyl-1,2,5,6-tetrahydro-4H-2,6-methano-benzo[d]azocin-3-yl)-methanone]",144 nM
7,"CC1(C)[C@H]2Cc3ccccc3[C@]1(C)CCN2C(=O)c1ccc2nccnc2c1 [Example 278, Quinoxalin-6-yl-[(2R,6S)-6,11,11-trimethyl-1,2,5,6-tetrahydro-4H-2,6-methano-benzo[d]azocin-3-yl]-methanone]",438 nM
8,"Cc1cccc2c1C[C@H]1N(C(=O)c3ccc4nc[nH]c4c3)CC[C@]2(C)C1(C)C [Example 139, (3H-Benzoimidazol-5-yl)-[(2R,6S)-6,10,11,11-tetramethyl-1,2,5,6-tetrahydro-4H-2,6-methano-benzo[d]azocin-3-yl]-methanone]",92 nM
9,"CC1(C)[C@H]2Cc3ccccc3[C@]1(C)CCN2C(=O)c1ccc2c(c1)C(O)CC2 (stereo partly drawn) [Example 291, (3-Hydroxy-indan-5-yl)-[(2R,6S)-6,11,11-trimethyl-1,2,5,6-tetrahydro-4H-2,6-methano-benzo[d]azocin-3-yl]-methanone]",183 nM
10,"Cc1ccccc1C(=O)N1CCC2(C)c3cc(O)ccc3CC1C2C (centres unmarked) [Example 106, (8-Hydroxy-6,11-dimethyl-1,2,5,6-tetrahydro-4H-2,6-methano-benzo[d]azocin-3-yl)-o-tolyl-methanone]",2960 nM
11,"CC1(C)[C@H]2Cc3cc4nc(-c5cccnc5)[nH]c4cc3[C@]1(C)CCN2C(=O)c1ccc2nc[nH]c2c1 [Example 274, (3H-Benzoimidazol-5-yl)-[(6R,10S)-5,6,7,8,9,10-hexahydro-10,12,12-trimethyl-2-pyridin-3-yl-6,10-methano-imidazo[5,4-i][3]benzazocin-7-yl]-methanone]",51 nM
12,"Cc1nc2cc3c(cc2o1)[C@]1(C)CCN(C(=O)c2ccc4nc[nH]c4c2)[C@H](C3)[C@H]1C [Example 305, (3H-Benzoimidazol-5-yl)-[(6R,10R,12S)-5,6,7,8,9,10-hexahydro-2,10,12-trimethyl-6,10-methano-oxazolo[5,4-i][3]benzazocin 7-yl]-methanone]",153 nM
13,"C[C@H]1[C@H]2Cc3ccc(O)cc3[C@]1(C)CCN2C(=O)c1ccco1 [Example 113, Furan-2-yl-[(2R,6R,11R)-8-hydroxy-6,11-dimethyl-1,2,5,6-tetrahydro-4H-2,6-methano-benzo[d]azocin-3-yl]-methanone]",3630 nM
14,"CC1(C)[C@H]2Cc3c(O)cccc3[C@]1(C)CCN2C(=O)c1ccc(CN2CCOCC2=O)cc1 [Example 207, 4-[(2R,6S)-4-(10-Hydroxy-6,11,11-trimethyl 1,2,5,6-tetrahydro-4H-2,6-methano-benzo[d]azocine-3-carbonyl)-benzyl]-morpholin-3-one]",224 nM
15,"C[C@@H]1[C@H]2Cc3ccc(C(C)(C)O)cc3[C@]1(C)CCN2C(=O)c1ccc2nc[nH]c2c1 [Example 340, (3H-Benzoimidazol-5-yl)-[(2R,6R,11S)-8-(1-hydroxy-1-methyl-ethyl)-6,11-dimethyl-1,2,5,6-tetrahydro-4H-2,6-methano-benzo[d]azocin-3-yl]-methanone]",67 nM
16,"Cc1cnc(-c2nc3cc4c(cc3o2)[C@]2(C)CCN(C(=O)c3ccc5nc[nH]c5c3)[C@H](C4)[C@H]2C)cn1 [Example 333, (3H-Benzoimidazol-5-yl)-[(6R,10R,12S)-5,6,7,8,9,10-hexahydro-10,12-dimethyl-2-(5-methyl-pyrazin-2-yl)-6,10-methano-oxazolo[5,4-i][3]benzazocin-7-yl]-methanone]",84 nM
17,"Cc1nc2cc3c(cc2o1)C[C@H]1N(C(=O)c2ccc4nc[nH]c4c2)CC[C@]3(C)C1(C)C [Example 301, (3H-Benzoimidazol-5-yl)-[(6R,10S)-5,6,7,8,9,10-hexahydro-2,10,12,12-tetramethyl-6,10-methano-oxazolo[4,5-i][3]benzazocin-7-yl]-methanone]",32 nM
18,"CC1(C)[C@H]2Cc3c(O)cccc3[C@]1(C)CCN2C(=O)c1ccncc1Cl [Example 144, (3-Chloro-pyridin-4-yl)-[(2R,6S)-10-hydroxy-6,11,11-trimethyl-1,2,5,6-tetrahydro-4H-2,6-methano-benzo[d]azocin-3-yl]-methanone]",2560 nM
19,"CC12CCN(C(=O)c3ccc4ncsc4c3)C(Cc3ccccc31)C2 (centres unmarked) [Example 174, Benzothiazol-6-yl-(6-methyl-1,2,5,6-tetrahydro-4H-2,6-methano-benzo[d]azocin-3-yl)-methanone]",406 nM
20,"NC(=O)C12CCN(C(=O)c3ccc4nc[nH]c4c3)C(Cc3ccc(O)cc31)C2 (centres unmarked) [Example 214, 3-(3H-Benzoimidazole-5-carbonyl)-8-hydroxy-2,3,4,5-tetrahydro-1H-2,6-methano-benzo[d]azocine-6-carboxylic acid amide]",5710 nM
21,"CC1(C)[C@H]2Cc3cc4nc(-c5cnccn5)[nH]c4cc3[C@]1(C)CCN2C(=O)c1ccc2nc[nH]c2c1 [Example 266, (3H-Benzoimidazol-5-yl)-[(6R,10S)-5,6,7,8,9,10-hexahydro-10,12,12-trimethyl-2-pyrazin-2-yl-6,10-methano-imidazo[5,4-i][3]benzazocin-7-yl]-methanone]",42 nM
22,"CC1(C)[C@H]2Cc3ccccc3[C@]1(C)CCN2C(=O)c1ccc(C(O)(C(F)(F)F)C(F)(F)F)cc1 [Example 339, [4-(2,2,2-Trifluoro-1-hydroxy-1-trifluoromethyl-ethyl)-phenyl]-[(2R,6S)-6,11,11-trimethyl-1,2,5,6-tetrahydro-4H-2,6-methano-benzo[d]azocin-3-yl]-methanone]",1270 nM
23,"COc1cc2c(cc1C)[C@@]1(C)CCN(C(=O)c3ccc4nc[nH]c4c3)[C@@H](C2)C1(C)C (stereo in doubt) [Example 64, (3H-Benzoimidazol-5-yl)-[(2S,6R)-9-methoxy-6,8,11,11-tetramethyl-1,2,5,6-tetrahydro-4H-2,6-methano-benzo[d]azocin-3-yl]-methanone]",753 nM
24,"CN(C)C(=O)c1ccc2c(c1)CC1N(C(=O)c3ccc4nc[nH]c4c3)CCC2(C)C1(C)C (centres unmarked) [Example 161, 3-(3H-Benzoimidazole-5-carbonyl)-6,11,11-trimethyl-1,2,3,4,5,6-hexahydro-2,6-methano-benzo[d]azocine-9-carboxylic acid dimethylamide]",1750 nM
25,"CC1(C)[C@H]2Cc3cc4oc(C5CC5)nc4cc3[C@]1(C)CCN2C(=O)c1ccc2nc[nH]c2c1 [Example 302, (3H-Benzoimidazol-5-yl)-[(6R,10S)-2-cyclopropyl-5,6,7,8,9,10-hexahydro-10,12,12-trimethyl-6,10-methano-oxazolo[4,5-i][3]benzazocin-7-yl]-methanone]",35 nM
26,"C[C@@H]1[C@H]2Cc3cc(C#N)ccc3[C@]1(C)CCN2C(=O)c1ccc2nc[nH]c2c1 [Example 227, (2R,6R,11S)-3-(3H-Benzoimidazole-5-carbonyl)-6,11-dimethyl-1,2,3,4,5,6-hexahydro-2,6-methano-benzo[d]azocine-9-carbonitrile]",25 nM
27,"Cc1cnc2cc3c(cc2n1)[C@]1(C)CCN(C(=O)c2ccc4nc[nH]c4c2)[C@H](C3)C1(C)C [Example 255, (3H-Benzoimidazol-5-yl)-[(7R,11S)-6,7,8,9,10,11-hexahydro-2,11,13,13-tetramethyl-7,11-methano-pyrazino[2,3-i][3]benzazocin-8-yl]-methanone]",742 nM
28,"COc1c(F)cc(C(=O)N2CC[C@@]3(C)c4ccccc4C[C@@H]2C3(C)C)cc1F [Example 331, (3,5-Difluoro-4-methoxy-phenyl)-[(2R,6S)-6,11,11-trimethyl-1,2,5,6-tetrahydro-4H-2,6-methano-benzo[d]azocin-3-yl]-methanone]",439 nM

# Same assay, conditions: 1 hour at 37° C., pH 6.0, NADPH 200 μM, cortisone 80 nM, inhibition relative to carbenoxolone signal, read-out: 11β-HSD IC50
row,SMILES,IC50
1,"O=C(c1ccc2nc[nH]c2c1)N1CC[C@@H]2C[C@H]1Cc1cccnc12 (racemic) [Example 325, (3H-Benzoimidazol-5-yl)-(5,8,9,10-tetrahydro-6H-6,10-methano-pyrido[3,2-d]azocin-7-yl)-methanone]",771 nM
